Experimental data taken from patent US20250049926A1, “PHARMACEUTICAL COMPOSITIONS COMPRISING MODIFIED BETACYCLODEXTRINS” (priority 2021, published 2025).

Experiments:
[1] = Formulation stability with SBE-beta-CD (assay and impurities by HPLC, stressed storage); format: physicochemical
Procedure: 500 mL batches of each formulation (target pH 4.0 and pH 5.5) are prepared according to the recipe in Table 2 below. The vials used were 50 mL 20 mm Crown, type I, Vial (Gerresheimer), part number 80018303030. The stoppers used were 20 mm S10-F451 Stopper 4432/50 Gray, (Flurotec™ On Plug Only) B2-40 Coating Westar RS part number 19700021.
Each formulation is filtered with a 0.22 μm nylon syringe filter. Vials are filled with 10 mL of formulation, stoppered, sealed and placed at 40° C./75% relative humidity (RH) or at 60° C. (uncontrolled humidity) for up to 14 days. Each vial is placed inverted so that maximum stopper contact with the solution during the stability conditions can be achieved. At each time-point, vials from both conditions and formulations are pulled and analyzed for assay and impurities.
The assay and impurities as measured using the same HPLC method as used for assessing solubility.

[2] = Solubility in water as a function of pH; format: physicochemical; details: aqueous buffer, pH≥4.5 (practically insoluble)
Procedure: (§1) The compound of formula (I) as a free base compound has a quite strong lipophilic behavior (Log P 4.13). […] Taking into account these characteristics, and based on pH requirements for intravenous (IV) solutions which is generally set ≥4.0, solubility studies were carried out to identify solubilizers able to substantially increase the aqueous solubility of the compound of formula (I).

mouse tumor models = assay: Single agent administration in mouse tumor models; format: in vivo
From the text: However the compound of formula (I) has low aqueous solubility, leading to the possibility of limited exposure in humans.

Log P of free base = format: physicochemical
Procedure: as §1

[3] = Formulation pH 4.0 (2 mg/mL, SBE-beta-CD 40 mg/mL), 40° C./75% RH, time zero, pH exp 4.1
[4] = Formulation pH 4.0, 40° C./75% RH, Day 1, pH exp 4.1
[5] = Formulation pH 4.0, 40° C./75% RH, Day 3, pH exp 4.0
[6] = Formulation pH 4.0, 40° C./75% RH, Day 7, pH exp 4.1
[7] = Formulation pH 4.0, 40° C./75% RH, Day 14, pH exp 4.1
[8] = Formulation pH 4.0, 60° C., Day 1, pH exp 4.1
[9] = Formulation pH 4.0, 60° C., Day 3, pH exp 4.1
[10] = Formulation pH 4.0, 60° C., Day 7, pH exp 4.1
[11] = Formulation pH 4.0, 60° C., Day 14, pH exp 4.1
[12] = Formulation pH 4.0, 60° C., time zero, pH exp 4.1
[13] = Formulation pH 5.5 (2 mg/mL, SBE-beta-CD 40 mg/mL), 40° C./75% RH, time zero, pH exp 5.6
[14] = Formulation pH 5.5, 40° C./75% RH, Day 1, pH exp 5.6
[15] = Formulation pH 5.5, 40° C./75% RH, Day 3, pH exp 5.6
[16] = Formulation pH 5.5, 40° C./75% RH, Day 7, pH exp 5.7
[17] = Formulation pH 5.5, 40° C./75% RH, Day 14, pH exp 5.6
[18] = Formulation pH 5.5, 60° C., Day 1, pH exp 5.6
[19] = Formulation pH 5.5, 60° C., Day 3, pH exp 5.6
[20] = Formulation pH 5.5, 60° C., Day 7, pH exp 5.7
[21] = Formulation pH 5.5, 60° C., Day 14, pH exp 5.7
[22] = Formulation pH 5.5, 60° C., time zero, pH exp 5.6

## COc1cc(N2CCNCC2)ccc1Nc1ncc2c(n1)-n1ccc(C(=O)Nc3c(C)cccc3C)c1CC2 [compound of formula (I)]
[1]; 60° C. stressed conditions, formulation at pH 5.5 compared to pH 4.0
  stability of formulation with SBE-beta-CD: lower impurities and lower loss of assay
[1]; [3]
  Assay (% of theoretical value of compound of formula (I)): 96.8%
  Total impurities: 1.1 % area
[1]; [4]
  Assay (% of theoretical value of compound of formula (I)): 98.1%
  Total impurities: 1.1 % area
[1]; [5]
  Assay (% of theoretical value of compound of formula (I)): 98.7%
  Total impurities: 1.3 % area
[1]; [6]
  Assay (% of theoretical value of compound of formula (I)): 103.1%
  Total impurities: 1.3 % area
[1]; [7]
  Assay (% of theoretical value of compound of formula (I)): 97.7%
  Total impurities: 1.4 % area
[1]; [8]
  Assay (% of theoretical value of compound of formula (I)): 97.9%
  Total impurities: 1.4 % area
[1]; [9]
  Assay (% of theoretical value of compound of formula (I)): 98.3%
  Total impurities: 2.0 % area
[1]; [10]
  Assay (% of theoretical value of compound of formula (I)): 97.9%
  Total impurities: 3.4 % area
[1]; [11]
  Assay (% of theoretical value of compound of formula (I)): 87.0%
  Total impurities: 4.7 % area
[1]; [12]
  Assay (% of theoretical value of compound of formula (I)): 96.8%
  Total impurities: 1.1 % area
[1]; [13]
  Assay (% of theoretical value of compound of formula (I)): 99.0%
  Total impurities: 1.1 % area
[1]; [14]
  Assay (% of theoretical value of compound of formula (I)): 97.9%
  Total impurities: 1.2 % area
[1]; [15]
  Assay (% of theoretical value of compound of formula (I)): 100.6%
  Total impurities: 1.3 % area
[1]; [16]
  Assay (% of theoretical value of compound of formula (I)): 100.1%
  Total impurities: 1.2 % area
[1]; [17]
  Assay (% of theoretical value of compound of formula (I)): 94.7%
  Total impurities: 1.3 % area
[1]; [18]
  Assay (% of theoretical value of compound of formula (I)): 97.9%
  Total impurities: 1.3 % area
[1]; [19]
  Assay (% of theoretical value of compound of formula (I)): 100.6%
  Total impurities: 1.5 % area
[1]; [20]
  Assay (% of theoretical value of compound of formula (I)): 100.1%
  Total impurities: 2.0 % area
[1]; [21]
  Assay (% of theoretical value of compound of formula (I)): 97.7%
  Total impurities: 3.0 % area
[1]; [22]
  Assay (% of theoretical value of compound of formula (I)): 99.0%
  Total impurities: 1.1 % area
[1]; pH 4.0 versus pH 5.5 at 40° C./75% RH stressed conditions
  stability of formulation with SBE-beta-CD: similar
[2]
  solubility: ≤ 20 µg/mL
Mouse tumor models
  tumor response: regressions (and cures)
Log P of free base
  logP: 4.13
